# Measurements from ChEMBL document CHEMBL1158215, “Three new cytotoxic sesterterpenes from the marine sponge Hyrtios cf. erectus” (J Nat Prod, 1996).
# Tested on: P388
# Experiment: Cytotoxicity against mouse P388 cells
# Assay type: functional, cell-based
row,Structure (SMILES),IC50 [mg/L]
1,CC(=O)O[C@@H]1C[C@@H]2[C@@]3(C)CCCC(C)(C)[C@@H]3CC[C@@]2(C)[C@@H]2C[C@H](O)C3=CC(=O)O[C@@H]3[C@@]12C,2.1
2,CC1(C)CCC[C@]2(C)[C@H]3C[C@@H](O)[C@]4(C)[C@H]5OC(=O)C=C5[C@@H](O)C[C@H]4[C@]3(C)CC[C@@H]12,0.4
3,CC(=O)OC[C@]1(C)CCC[C@]2(C)[C@H]3CC[C@@]4(C)[C@@H](CC=C5C(=O)O[C@@H](O)[C@@H]54)[C@]3(C)CC[C@@H]12,0.9
